Reference: patent US6984633B2, “Method to treat cardiofibrosis with a combination therapy of an angiotensin II antagonist and epoxymexrenone” (G.D Searle & Co., priority 1995, dated 2006)

These compounds were tested on rabbit aortic rings (assay: Assay B: In vitro vascular smooth muscle response for AII, antagonist activity in aortic rings). Settings: not given.
Assay type: cell-based
Protocol: Assay B: In Vitro Vascular Smooth Muscle-Response for AII
The compounds of the invention were tested for antagonist activity in rabbit aortic rings. Male New Zealand white rabbits (2-2.5 kg) were sacrificed using an overdose of pentobarbital and exsanguinated via the carotid arteries. The thoracic aorta was removed, cleaned of adherent fat and connective tissue and then cut into 3-mm ring segments. The endothelium was removed from the rings by gently sliding a rolled-up piece of filter paper into the vessel lumen. The rings were then mounted in a water-jacketed tissue bath, maintained at 37° C., between moveable and fixed ends of a stainless steel wire with the moveable end attached to an FT03 Grass transducer coupled to a Model 7D Grass Polygraph for recording isometric force responses. The bath was filled with 20 ml of oxygenated (95% oxygen/5% carbon dioxide) Krebs solution of the following composition (mM); 130 NaCl, 15 NaHCO3, […], 1.2 NaH2PO4, 1.2 MgSO4, 2.5 CaCl2, and 11.4 glucose. The preparations were equilibrated for one hour before approximately one gram of passive tension was placed on the rings. Angiotensin II concentration-response curves were then recorded (3×10^−10 to 1×10^−5 M). Each concentration of AII was allowed to elicit its maximal contraction, and then AII was washed out repeatedly for 30 minutes before rechallenging with a higher concentration of AII. Aorta rings were exposed to the test antagonist at 10^−5 M for 5 minutes before challenging with AII. Adjacent segments of the same aorta ring were used for all concentration-response curves in the presence of absence of the test antagonist. The effectiveness of the test compound was expressed in terms of pA2 values and were calculated according to H. O. Schild [Br. J. Pharmacol. Chemother., 2, 189-206 (1947)]. The pA2 value is the concentration of the antagonist which increases the EC50 value for AII by a factor of two. Each test antagonist was evaluated in aorta rings from two rabbits.

Compound	Assay B pA2 column, result given as symbol
CCCCc1nc(CCCN)n(Cc2ccc(-c3ccccc3-c3nnn[nH]3)cc2)n1 [Compound 71]	* (Antagonist Activity not observed up to 10 μM of test compound.)

Same assay, conditions: two determinations separated by /

Compound	Assay B pA2
CCCc1nc(CCC)n(Cc2ccc(-c3ccccc3-c3nnn[nH]3)cc2)n1 [Compound 12]	8.59
CCCCCc1nc(CCCCC)n(Cc2ccc(-c3ccccc3-c3nnn[nH]3)cc2)n1 [Compound 13]	8.85
CCCCc1nc(CCC)nn1Cc1ccc(-c2ccccc2-c2nnn[nH]2)cc1 [Compound 14]	8.71
CCCCc1nc(CCC)n(Cc2ccc(-c3ccccc3-c3nnn[nH]3)cc2)n1 [Compound 15]	8.30
CCCCc1nc(CCC(C)C)n(Cc2ccc(-c3ccccc3-c3nnn[nH]3)cc2)n1 [Compound 16]	9.24
CCCCc1nc(CCC(C)C)nn1Cc1ccc(-c2ccccc2-c2nnn[nH]2)cc1 [Compound 17]	8.40
CCCCc1ncnn1Cc1ccc(-c2ccccc2C(=O)O)cc1 [Compound 18]	6.09
CCCCc1ncn(Cc2ccc(-c3ccccc3C(=O)O)cc2)n1 [Compound 19]	5.35
CCCCc1nc(-c2ccccc2)n(Cc2ccc(-c3ccccc3-c3nnn[nH]3)cc2)n1 [Compound 22]	6.46
CCCCc1nc(C(OC)OC)nn1Cc1ccc(-c2ccccc2-c2nnn[nH]2)cc1 [Compound 24]	7.73
CCCCc1nc(CCc2ccccc2)n(Cc2ccc(-c3ccccc3-c3nnn[nH]3)cc2)n1 [Compound 25]	6.73
CCCCc1nc(CCc2ccccc2)nn1Cc1ccc(-c2ccccc2-c2nnn[nH]2)cc1 [Compound 26]	9.66
CCCCc1nc(C(=O)CCC)nn1Cc1ccc(-c2ccccc2-c2nnn[nH]2)cc1 [Compound 30]	7.88
CCCCc1nc(CNC(=O)OC(C)(C)C)nn1Cc1ccc(-c2ccccc2-c2nnn[nH]2)cc1 [Compound 35]	7.47
CCCCc1nc(CN)n(Cc2ccc(-c3ccccc3-c3nnn[nH]3)cc2)n1 [Compound 36]	5.68
CCCCc1nc(CC(OCC)OCC)n(Cc2ccc(-c3ccccc3-c3nnn[nH]3)cc2)n1 [Compound 37]	6.85
CCCCc1nc(CC)nn1Cc1ccc(-c2ccccc2-c2nnn[nH]2)cc1 [Compound 39]	7.84
CCCCc1nc(CNC(=O)CCC(NC(C)=O)C(=O)OC(C)(C)C)nn1Cc1ccc(-c2ccccc2-c2nnn[nH]2)cc1 (centres unmarked) [Compound 41]	5.96
CCCCc1nc(CCC2CCCCC2)n(Cc2ccc(-c3ccccc3-c3nnn[nH]3)cc2)n1 [Compound 42]	6.26
CCCCc1nc(CCCO)nn1Cc1ccc(-c2ccccc2-c2nnn[nH]2)cc1 [Compound 45]	8.24
CCCCc1nc(CCCO)n(Cc2ccc(-c3ccccc3-c3nnn[nH]3)cc2)n1 [Compound 46]	6.64
CCCCc1nc(C(F)F)nn1Cc1ccc(-c2ccccc2-c2nnn[nH]2)cc1 [Compound 47]	7.58

Compound	Assay B pA2
CCCCc1nc(C(=O)Cc2ccccc2)nn1Cc1ccc(-c2ccccc2-c2nnn[nH]2)cc1 [Compound 50]	7.89
CCCCc1nc(C(F)(F)Cc2ccccc2)nn1Cc1ccc(-c2ccccc2-c2nnn[nH]2)cc1 [Compound 51]	8.51
CCCCc1nc(C(=O)O)nn1Cc1ccc(-c2ccccc2-c2nnn[nH]2)cc1 [Compound 52]	8.12
CCCCc1ncnn1Cc1ccc(-c2ccccc2-c2nnn[nH]2)cc1 [Compound 53]	7.83
CCCCc1nc(CCCC2CCCCC2)nn1Cc1ccc(-c2ccccc2-c2nnn[nH]2)cc1 [Compound 58]	6.57
CCCCc1nc(CC23CC4CC(CC(C4)C2)C3)nn1Cc1ccc(-c2ccccc2-c2nnn[nH]2)cc1 [Compound 62]	8.61
CCCCc1nc(CCC(=O)O)nn1Cc1ccc(-c2ccccc2-c2nnn[nH]2)cc1 [Compound 63]	7.67
CCCCc1nc(CCC(=O)O)n(Cc2ccc(-c3ccccc3-c3nnn[nH]3)cc2)n1 [Compound 64]	6.77
CCCCc1nc(C2CCCCC2)n(Cc2ccc(-c3ccccc3-c3nnn[nH]3)cc2)n1 [Compound 65]	7.75
CCCCc1nc(CCCNC(=O)OC(C)(C)C)n(Cc2ccc(-c3ccccc3-c3nnn[nH]3)cc2)n1 [Compound 67]	5.78
CCCCc1nc(CCCN)nn1Cc1ccc(-c2ccccc2-c2nnn[nH]2)cc1 [Compound 72]	6.10
CCCCc1nc(CC2CCCCC2)n(Cc2ccc(-c3ccccc3-c3nnn[nH]3)cc2)n1 [Compound 73]	7.46
CCCCc1nc(CC2CCCCC2)nn1Cc1ccc(-c2ccccc2-c2nnn[nH]2)cc1 [Compound 74]	8.39
CCCCc1nc(CC)n(Cc2ccc(-c3ccccc3C(=O)O)cc2)n1 [Compound 76]	5.78
CCCCc1nc2c(OC(=O)C(C)C)nnc(O)c2n1Cc1ccc(-c2ccccc2-c2nnn[nH]2)cc1 [Compound 119]	9.00
CCCCc1nc2c(OC(=O)C3CCCCC3)nnc(O)c2n1Cc1ccc(-c2ccccc2-c2nnn[nH]2)cc1 [Compound 120]	8.77
CCCCc1nc2c(OC(=O)Cc3ccccc3)nnc(O)c2n1Cc1ccc(-c2ccccc2-c2nnn[nH]2)cc1 [Compound 124]	9.12
CCCCc1nc(Cc2ccc(-c3ccccc3C(=O)O)cc2)n(CCCC)n1 [Compound 126]	7.05
CCCCc1nc(Cc2ccc(-c3ccccc3-c3nnn[nH]3)cc2)n(CCCC)n1 [Compound 128]	8.40
CCCCn1nc(C(F)(F)CCC)nc1Cc1ccc(-c2ccccc2-c2nnn[nH]2)cc1 [Compound 130]	7.94
CCCCc1nc(Cc2ccc(-c3ccccc3-c3nnn[nH]3)nc2)n(CCCC)n1 [Compound 150]	7.80
CCCCn1nc(CCc2ccccc2)nc1Cc1ccc(-c2ccccc2-c2nnn[nH]2)nc1 [Compound 151]	7.97

Compound	Assay B pA2
CCCCn1nc(CCC)nc1Cc1ccc(-c2ccccc2-c2nnn[nH]2)nc1 [Compound 152]	7.23
CCCCn1nc(/C=C/c2cccs2)nc1Cc1ccc(-c2ccccc2-c2nnn[nH]2)nc1 [Compound 154]	8.38
CCCCn1nc(-c2ccccc2Cl)nc1Cc1ccc(-c2ccccc2-c2nnn[nH]2)nc1 [Compound 158]	8.14
CCCCn1nc(C(=O)CCC)nc1Cc1ccc(-c2ccccc2-c2nnn[nH]2)nc1 [Compound 160]	7.71
CCCn1nc(C(C)(F)F)nc1Cc1ccc(-c2ccccc2-c2nnn[nH]2)nc1 [Compound 165]	7.18
CCCCn1nc(C(C)(F)F)nc1Cc1ccc(-c2ccccc2-c2nnn[nH]2)nc1 [Compound 166]	7.74
CCCn1nc(C(F)(F)CC)nc1Cc1ccc(-c2ccccc2-c2nnn[nH]2)nc1 [Compound 167]	7.11
CCCCn1nc(C(F)(F)CC)nc1Cc1ccc(-c2ccccc2-c2nnn[nH]2)nc1 [Compound 168]	7.58
CCCn1nc(C(F)(F)CCC)nc1Cc1ccc(-c2ccccc2-c2nnn[nH]2)nc1 [Compound 169]	7.58
CCCCn1nc(C(=O)NC)nc1Cc1ccc(-c2ccccc2-c2nnn[nH]2)nc1 [Compound 172]	7.04
CCCn1nc(C(OC)OC)nc1Cc1ccc(-c2ccccc2-c2nnn[nH]2)nc1 [Compound 174]	7.02
CCCCn1nc(C(OCC)OCC)nc1Cc1ccc(-c2ccccc2-c2nnn[nH]2)nc1 [Compound 176]	7.55
CCCCn1nc(C(OC(C)C)OC(C)C)nc1Cc1ccc(-c2ccccc2-c2nnn[nH]2)nc1 [Compound 178]	7.47
CCCCc1nc(CCCC)n(Cc2ccc(-c3ccccc3-c3nnn[nH]3)cn2)n1 [Compound 239]	8.01
CCCc1nc(CCC)n(Cc2ccc(-c3ccccc3-c3nnn[nH]3)nc2)n1 [Compound 246]	7.59
CCCCc1nc(C(F)(F)CCC)nn1Cc1ccc(-c2ccccc2-c2nnn[nH]2)nc1 [Compound 247]	8.41
CCCCc1nc(C(F)(F)CCC)n(Cc2ccc(-c3ccccc3-c3nnn[nH]3)nc2)n1 [Compound 248]	7.50
CCCCc1nc(C(=O)N(C)C(C)(C)C)nn1Cc1ccc(-c2ccccc2-c2nnn[nH]2)nc1 [Compound 255]	7.46
CCCCc1nc(C(=O)NC)nn1Cc1ccc(-c2ccccc2-c2nnn[nH]2)nc1 [Compound 257]	6.68
CCCCc1nc(C)nn1Cc1ccc(-c2ccccc2C(=O)O)cc1 [Compound 280]	6.35
